Experimental data: ChEMBL document CHEMBL1201862, “PubChem BioAssay data set” (2004)
Activity calls are given as the source filed them. Cut-off read from the data, not from the text of the source, for most assays here: actives have a measured EC50 and inactives only a lower limit.

Tests used:
Protein RecA = target: T1, Protein RecA (Mycobacterium tuberculosis, UniProt P9WHJ3); experiment: Fluorescence Cell-Free Homogeneous Dose Retest to Identify Inhibitors of RecA-Intein Splicing Activity. [Related pubchem assays (depositor defined):AID2097, AID2223, AID489010, AID492950]; format: functional
T1 sequence (P9WHJ3 whole entry): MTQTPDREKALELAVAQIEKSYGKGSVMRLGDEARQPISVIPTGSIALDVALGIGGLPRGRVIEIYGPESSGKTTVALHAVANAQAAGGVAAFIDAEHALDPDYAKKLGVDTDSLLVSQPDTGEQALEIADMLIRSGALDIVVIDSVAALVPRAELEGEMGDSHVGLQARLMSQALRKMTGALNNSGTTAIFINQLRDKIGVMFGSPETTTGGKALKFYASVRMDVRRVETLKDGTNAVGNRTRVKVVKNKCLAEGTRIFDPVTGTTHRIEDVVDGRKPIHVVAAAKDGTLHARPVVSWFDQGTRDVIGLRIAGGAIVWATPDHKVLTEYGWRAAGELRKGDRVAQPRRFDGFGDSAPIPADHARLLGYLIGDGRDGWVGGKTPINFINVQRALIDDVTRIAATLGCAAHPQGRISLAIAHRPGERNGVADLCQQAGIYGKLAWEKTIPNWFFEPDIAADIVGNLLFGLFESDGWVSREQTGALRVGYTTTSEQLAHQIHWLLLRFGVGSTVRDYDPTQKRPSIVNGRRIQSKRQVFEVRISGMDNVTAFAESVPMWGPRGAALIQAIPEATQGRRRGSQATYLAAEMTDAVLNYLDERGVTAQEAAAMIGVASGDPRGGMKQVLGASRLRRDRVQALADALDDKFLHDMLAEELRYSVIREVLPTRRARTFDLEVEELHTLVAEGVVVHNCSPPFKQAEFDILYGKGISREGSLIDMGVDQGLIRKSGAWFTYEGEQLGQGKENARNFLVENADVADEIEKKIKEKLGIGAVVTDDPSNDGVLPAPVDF

[1] = target: T2, Replicative DNA helicase DnaB (Mycobacterium tuberculosis, UniProt P9WMR3); experiment: DnaB intein splicing inhibitors, dose response, biochemical, cell-free fluorescence (AID 449749); format: functional
T2 sequence (P9WMR3 whole entry): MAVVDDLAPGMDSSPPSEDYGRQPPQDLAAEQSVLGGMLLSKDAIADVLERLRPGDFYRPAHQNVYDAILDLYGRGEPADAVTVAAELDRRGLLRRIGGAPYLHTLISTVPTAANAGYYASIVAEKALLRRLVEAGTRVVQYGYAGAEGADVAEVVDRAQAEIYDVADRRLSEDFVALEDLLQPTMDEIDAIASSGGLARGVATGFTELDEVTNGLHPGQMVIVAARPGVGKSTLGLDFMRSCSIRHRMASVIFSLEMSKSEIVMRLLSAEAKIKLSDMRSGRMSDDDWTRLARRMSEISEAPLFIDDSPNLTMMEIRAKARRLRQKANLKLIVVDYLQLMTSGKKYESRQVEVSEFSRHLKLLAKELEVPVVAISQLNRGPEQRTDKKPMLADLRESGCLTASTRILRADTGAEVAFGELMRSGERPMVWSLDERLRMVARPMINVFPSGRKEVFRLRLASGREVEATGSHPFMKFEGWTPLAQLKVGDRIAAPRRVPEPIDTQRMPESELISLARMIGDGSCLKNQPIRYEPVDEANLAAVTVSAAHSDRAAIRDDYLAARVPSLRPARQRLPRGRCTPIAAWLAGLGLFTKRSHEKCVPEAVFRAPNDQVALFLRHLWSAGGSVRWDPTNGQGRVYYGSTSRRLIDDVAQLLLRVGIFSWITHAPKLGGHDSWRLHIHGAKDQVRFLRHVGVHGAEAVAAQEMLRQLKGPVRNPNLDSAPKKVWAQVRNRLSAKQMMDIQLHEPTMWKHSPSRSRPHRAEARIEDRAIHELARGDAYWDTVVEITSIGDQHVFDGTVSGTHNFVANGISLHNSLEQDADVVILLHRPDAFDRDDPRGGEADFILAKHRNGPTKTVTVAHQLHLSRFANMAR

[2] = target: T3, RNA-binding protein pos-1 (Caenorhabditis elegans, UniProt G5EF15); experiment: inhibitors of POS-1/mex-3 RNA binding, dose response, biochemical, fluorescence polarization (AID 1964);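 note: purified POS-1 fused to maltose binding protein made in E. coli; potency of compounds blocking POS-1 binding to fluorescent RNA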
T3 sequence (G5EF15 whole entry): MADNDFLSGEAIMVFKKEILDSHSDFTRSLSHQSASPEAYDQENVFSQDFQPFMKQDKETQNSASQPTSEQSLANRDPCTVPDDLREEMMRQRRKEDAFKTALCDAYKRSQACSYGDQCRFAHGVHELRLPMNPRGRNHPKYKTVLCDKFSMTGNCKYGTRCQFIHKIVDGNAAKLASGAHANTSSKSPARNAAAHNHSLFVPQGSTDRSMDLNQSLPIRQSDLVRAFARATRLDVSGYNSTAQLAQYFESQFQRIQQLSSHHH

[3] = target: T4, Zinc finger protein mex-5 (Caenorhabditis elegans, UniProt Q9XUB2); experiment: MEX-5/TCR-2 RNA interaction inhibitors, dose response, biochemical, C. elegans, fluorescence polarization (AID 1960)
T4 sequence (Q9XUB2 whole entry): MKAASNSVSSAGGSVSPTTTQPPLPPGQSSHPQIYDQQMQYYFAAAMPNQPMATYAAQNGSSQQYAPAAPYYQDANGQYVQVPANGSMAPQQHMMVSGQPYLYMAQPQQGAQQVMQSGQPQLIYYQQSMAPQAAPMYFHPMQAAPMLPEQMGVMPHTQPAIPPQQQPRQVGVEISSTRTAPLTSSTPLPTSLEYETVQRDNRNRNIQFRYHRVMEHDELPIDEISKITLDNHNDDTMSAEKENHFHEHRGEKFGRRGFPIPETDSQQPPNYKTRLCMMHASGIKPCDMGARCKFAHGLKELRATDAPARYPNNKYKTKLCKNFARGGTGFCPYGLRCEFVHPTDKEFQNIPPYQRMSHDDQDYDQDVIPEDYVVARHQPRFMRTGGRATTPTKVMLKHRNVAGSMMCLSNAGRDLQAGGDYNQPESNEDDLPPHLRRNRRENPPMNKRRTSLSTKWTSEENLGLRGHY

[4] = NIH-3T3 fibroblast cytotoxicity, dose response, cytotoxicity control, cell-based, fluorescence, Alamar Blue, secondary assay (AID 2327); format: functional;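 note: NIH-3T3 mouse fibroblasts cultured with fluconazole at 8 µg/mL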
[5] = C. albicans growth with fluconazole, confirmation, fluorescence, retest (AID 2467); format: functional, cell-based
Cytochrome P450 3A4 = Cytochrome P450 3A4 (Homo sapiens, UniProt P08684);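 note: CYP3A4 tested as one member of a cytochrome P450 panel screen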
Cytochrome P450 2C9 = Cytochrome P450 2C9 (Homo sapiens, UniProt P11712)
[6] = Luminescence Cell-Based Dose Response HTS to Identify Activators of Luciferase Translation or Activity in H4 […] Cells. [Related pubchem assays: 1829 (Project Summary), 1814 (Primary HTS)]; format: functional
[7] = Luminescence Cell-Based Dose Confirmation HTS to Identify Activators of 5'UTR Stem-Loop Driven Alpha-Synuclein mRNA Translation in H4 Neuroglioblastoma Cells. [Related pubchem assays: 1829 (Project Summary), 1814 (Primary HTS)]; format: functional
H4 = experiment: Luminescence Cell-Based Dose Response HTS to Identify Activators of 5'UTR Stem-Loop Driven Prion Protein mRNA Translation in H4 Neuroglioblastoma Cells. [Related pubchem assays: 1829 (Project Summary), 1814 (Primary HTS)]; format: functional; settings: Homo sapiens
Genome polyprotein = Genome polyprotein (dengue virus type 2, UniProt P29990); experiment: Dengue-2 NS5 methyltransferase inhibitors, primary screen, biochemical, confirmation dose response (AID 588689); format: functional
Chain of Genome polyprotein (P29990 2492-3391 limits assumed): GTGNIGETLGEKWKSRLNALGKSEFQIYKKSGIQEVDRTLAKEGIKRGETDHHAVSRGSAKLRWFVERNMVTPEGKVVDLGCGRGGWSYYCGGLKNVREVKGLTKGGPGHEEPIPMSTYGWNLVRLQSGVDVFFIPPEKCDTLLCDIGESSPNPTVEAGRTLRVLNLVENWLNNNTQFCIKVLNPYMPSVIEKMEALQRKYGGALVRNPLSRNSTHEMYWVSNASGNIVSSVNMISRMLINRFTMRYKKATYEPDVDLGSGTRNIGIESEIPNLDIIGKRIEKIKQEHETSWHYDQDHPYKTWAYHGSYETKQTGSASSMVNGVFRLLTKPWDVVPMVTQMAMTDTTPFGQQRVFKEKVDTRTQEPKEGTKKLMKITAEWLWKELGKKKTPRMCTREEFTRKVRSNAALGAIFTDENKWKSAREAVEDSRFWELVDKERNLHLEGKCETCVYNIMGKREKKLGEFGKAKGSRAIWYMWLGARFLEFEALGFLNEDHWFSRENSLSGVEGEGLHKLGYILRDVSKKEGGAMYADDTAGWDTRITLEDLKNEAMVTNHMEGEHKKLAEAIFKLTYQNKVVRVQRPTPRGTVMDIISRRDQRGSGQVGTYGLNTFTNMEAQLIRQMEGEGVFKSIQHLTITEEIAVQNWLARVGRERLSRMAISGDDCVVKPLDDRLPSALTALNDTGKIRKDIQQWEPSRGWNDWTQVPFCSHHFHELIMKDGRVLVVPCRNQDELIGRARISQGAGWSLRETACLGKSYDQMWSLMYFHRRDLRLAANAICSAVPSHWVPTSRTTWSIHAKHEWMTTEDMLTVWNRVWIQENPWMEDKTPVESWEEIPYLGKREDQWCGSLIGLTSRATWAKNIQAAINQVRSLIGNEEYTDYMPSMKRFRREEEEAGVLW

Chain of Cytochrome P450 2C9 (P11712 whole entry): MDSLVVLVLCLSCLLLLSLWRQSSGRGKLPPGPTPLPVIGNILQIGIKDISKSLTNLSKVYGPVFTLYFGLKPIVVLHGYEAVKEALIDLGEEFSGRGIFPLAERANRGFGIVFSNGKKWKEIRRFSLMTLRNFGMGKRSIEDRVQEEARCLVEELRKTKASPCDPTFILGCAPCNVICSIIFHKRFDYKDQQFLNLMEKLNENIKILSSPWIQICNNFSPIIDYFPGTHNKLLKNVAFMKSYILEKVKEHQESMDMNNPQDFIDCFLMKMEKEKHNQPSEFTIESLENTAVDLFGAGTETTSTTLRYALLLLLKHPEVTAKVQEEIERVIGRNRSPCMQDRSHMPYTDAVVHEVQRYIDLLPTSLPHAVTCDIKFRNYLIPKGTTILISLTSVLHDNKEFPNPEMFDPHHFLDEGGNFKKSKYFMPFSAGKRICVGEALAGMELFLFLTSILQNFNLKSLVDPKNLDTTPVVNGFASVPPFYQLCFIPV
Chain of Cytochrome P450 3A4 (P08684 whole entry): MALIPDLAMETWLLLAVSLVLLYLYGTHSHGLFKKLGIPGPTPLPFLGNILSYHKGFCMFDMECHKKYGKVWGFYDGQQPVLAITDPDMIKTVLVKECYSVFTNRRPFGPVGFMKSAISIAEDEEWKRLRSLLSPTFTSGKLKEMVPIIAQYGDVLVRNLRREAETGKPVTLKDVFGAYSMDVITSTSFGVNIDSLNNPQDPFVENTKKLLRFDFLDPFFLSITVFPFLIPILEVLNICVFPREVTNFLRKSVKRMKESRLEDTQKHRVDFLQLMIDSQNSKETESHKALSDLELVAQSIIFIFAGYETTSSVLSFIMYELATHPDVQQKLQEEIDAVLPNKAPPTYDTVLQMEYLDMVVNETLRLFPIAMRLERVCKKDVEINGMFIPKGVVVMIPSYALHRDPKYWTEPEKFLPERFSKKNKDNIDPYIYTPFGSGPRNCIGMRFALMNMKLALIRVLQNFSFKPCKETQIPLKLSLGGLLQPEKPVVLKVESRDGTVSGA

CC1=NN(c2ccc(Cl)cc2)C(=O)C1
EC50 (Protein RecA): 2.67 µM (active) | AC50 [1]: 2.74 µM (active)

O=C(O)C1OC(Oc2cc3oc(-c4ccccc4)cc(=O)c3c(O)c2O)C(O)C(O)C1O (centres undefined)
EC50 [2]: 27.2 µM (active) | EC50 [3]: 11.9 µM (active)

CCc1ccc(C2C(C#N)=C(N)Oc3[nH]nc(CC(=O)OC)c32)cc1 (centres undefined)
EC50 (Protein RecA): 8.36 µM (active) | AC50 [1]: 13.8 µM (active)

CC1(C)CC(=O)C2=C(C1)OC(N)=C(C#N)C2c1cccc(OC(=O)c2ccco2)c1 (centres undefined)
EC50 [2]: > 300 µM (not active) | EC50 [3]: > 300 µM (not active)

O=C(NNc1ccc(Cl)cc1)C1CCC1
EC50 [4]: 48.3 µM (active) | EC50 [5]: > 38 µM (not active)

CCOC(=O)c1nc(C)n(-c2ccc(Cl)cc2)n1
EC50 (Protein RecA): > 380 µM (inactive) | AC50 [1]: > 380 µM (inactive)

COc1ccc(/C=N/NC(=O)c2ccc(N(C)S(=O)(=O)c3ccccc3)cc2)cc1
EC50 [2]: > 300 µM (not active) | EC50 [3]: > 300 µM (not active)

Cc1cc(C2C(C#N)=C(N)Oc3[nH]nc(C)c32)c(C)s1 (centres undefined)
AC50 (Cytochrome P450 3A4): 7.08 µM (inconclusive) | EC50 (Protein RecA): 3.32 µM (active) | AC50 (Cytochrome P450 2C9): 10 µM (inconclusive) | AC50 [1]: 10.9 µM (active)

CN1C(=O)NC(c2cccc(O)c2)C(C(=O)c2cccs2)C1(O)C(F)(F)F (centres undefined)
EC50 [6]: > 120 µM (not active) | EC50 [7]: > 120 µM (not active) | EC50 (H4): 3.94 µM (active)

Cc1cccc(N2CC(C(=O)OCC(=O)c3ccc(OC(=O)c4cccs4)cc3)CC2=O)c1C (centres undefined)
EC50 (Protein RecA): 25 µM (active) | AC50 [1]: 97.7 µM (active)

COc1ccc(-n2cc(CNCc3cnc4ccccn34)c(-c3cccc(F)c3)n2)cc1
EC50 [2]: > 300 µM (not active) | EC50 [3]: > 300 µM (inconclusive)

O=[N+]([O-])c1ccc(/C=N/N=C(/Nc2ccccn2)c2ccccn2)cc1
EC50 [6]: > 120 µM (not active) | EC50 [7]: > 60 µM (not active) | EC50 (H4): > 120 µM (not active)

O=C(CN1C(=O)/C(=C/c2ccccc2)SC1=S)NNC(=O)c1ccccc1O
EC50 [4]: > 160 µM (inconclusive) | EC50 [5]: > 38 µM (not active)

N#CC1=C(N)Oc2c(c(=O)oc3ccccc23)C1c1ccccc1OC(=O)c1cccs1 (centres undefined)
EC50 [6]: > 120 µM (not active) | EC50 [7]: > 120 µM (not active) | EC50 (H4): > 120 µM (not active)

O=C1/C(=C/c2cccc(F)c2)SC(=S)N1NS(=O)(=O)c1ccccc1
IC50 (Genome polyprotein): 30.6 µM (active)
